From US5374711A, “Chemical modification of 2"-amino group in elsamicin a” (Bristol-Myers Squibb Company, priority 1993, dated 1994)
In brackets after ≈: the same amount, converted by molar mass. Counter-ions that a name gives are not always drawn.

How the values were obtained:
[1] = system: lymphocytic leukemia P388; assay: In vivo antitumor activity against P388 leukemia in mice (ip, Q1Dx3); parameters: species or system mice (female CDF1); conditions: for T/C % of MST / prolongation of life-span in the P388-bearing mice: Q1Dx3, ip; for times less active than the parent compound in terms of minimum effective doses (MED): P388, vs elsamicin A
Method: (§1) Among the derivatives tested, in vivo antitumor activity of six derivatives showing relatively potent cytotoxicity was tested in the lymphocytic leukemia P388 and B16 melanoma systems. Female CDF1 (for P388) and male BDF1 (for B16) mice were inoculated by ip injection at 10^6 P388 cells and 0.5 ml of a 10% B16 brei per mouse, respectively (day 0). […] The percent increase of median survival time (MST) of treated animals over that of untreated control animals was determined and reported as T/C %. Compounds showing T/C % values of 125 or greater are considered to have significant antitumor activity. […] The others had no activity at the doses tested. Derivatives 4d4e, and 5 when tested in the B16 system, also gave 10- 30 times less antitumor activity than elsamicin A in terms of MED (Table 5).

B16 melanoma = assay: In vivo antitumor activity against B16 melanoma in mice (ip, Q4Dx3); parameters: species or system mice (male BDF1); conditions: for times less antitumor activity than elsamicin A in terms of MED: B16, vs elsamicin A
Method: as §1

lymphoid leukemia L1210 = conditions: in vitro and in vivo; cited from earlier work
anaerobic bacteria = conditions: cited from earlier work
melanotic melanoma B16 = conditions: in vitro and in vivo; cited from earlier work
[2] = system: aerobic gram-positive bacteria; conditions: cited from earlier work
leukemia P388 = conditions: in vitro and in vivo; cited from earlier work
[3] = system: murine melanoma B16-F10 cells; assay: cells; conditions: Mus musculus, B16-F10, 72 h, read-out: Cytotoxicity IC50
Method: For in vitro cytotoxicity experiment, murine melanoma B16-F10 cells were grown and maintained in Eagle's minimum essential medium (Nissui), which contains kanamycin (60 μg/ml), supplemented with heat-inactivated fetal calf serum (10%) and nonessential amino acids (0.6%) at 37° C. under a humidified atmosphere in a 5% CO2 incubator, Exponentially growing B16-F10 cells were harvested, counted and suspended in the culture medium at the concentration of 2.0×10^4 cells/ml. The cell suspension (180 μl) was planted into wells of a 96-well microtiter plate and incubated for 24 hours. Test compounds (20 μl) were added to the wells and the plates were further incubated for 72 hours. The cytotoxic activity was colorimetrically determined at 540 nm after staining viable cells with neutral red solution.

Row | SMILES | T/C % of MST ([1]; 0.1 mg/kg/day) | T/C % of MST ([1]; 0.3 mg/kg/day) | T/C % of MST ([1]; 1 mg/kg/day) | T/C % of MST ([1]; 3 mg/kg/day) | T/C % of MST ([1]; 10 mg/kg/day) | times less active than the parent compound in terms of minimum effective doses (MED) [1] | prolongation of life-span in the P388-bearing mice [1] | T/C % of MST (B16 melanoma; 0.3 mg/kg/day, Q4Dx3 ip) | T/C % of MST (B16 melanoma; 1 mg/kg/day, Q4Dx3 ip) | T/C % of MST (B16 melanoma; 3 mg/kg/day, Q4Dx3 ip) | T/C % of MST (B16 melanoma; 10 mg/kg/day, Q4Dx3 ip) | times less antitumor activity than elsamicin A in terms of MED (B16 melanoma) | other results
1 | CO[C@H]1[C@@H](O)[C@@H](C)O[C@H](O[C@H]2[C@H](Oc3cccc4c(O)c5c(=O)oc6ccc(C)c7c(=O)oc(c34)c5c67)O[C@H](C)[C@H](O)[C@]2(C)O)[C@@H]1NC=N [Compound 5, 2"-N-Formimidoylelsamicin A hydrochloride] | 100% | 100% | 120% | 130% | 140% | 10-30 times | quite limited prolongation of life-span | 100% | 103% | 126% | 150% | 10- 30 times | –
2 | CO[C@H]1[C@@H](O)[C@@H](C)O[C@H](O[C@H]2[C@H](Oc3cccc4c(O)c5c(=O)oc6ccc(C)c7c(=O)oc(c34)c5c67)O[C@H](C)[C@H](O)[C@]2(C)O)[C@@H]1N(C)C [Compound 4e, 2"-N,N-Dimethylelsamicin A] | – | – | 110% | 130% | 140% | 10-30 times | quite limited prolongation of life-span | – | 103% | 109% | 132% | 10- 30 times | –
3 | CO[C@H]1[C@@H](O)[C@@H](C)O[C@H](O[C@H]2[C@H](Oc3cccc4c(O)c5c(=O)oc6ccc(C)c7c(=O)oc(c34)c5c67)O[C@H](C)[C@H](O)[C@]2(C)O)[C@@H]1NC(=O)CN [Compound 3d, 2"-N-Glycylelsamicin A] | – | – | 95% | 110% | 110% | – | – | – | – | – | – | – | –
4 | CO[C@H]1[C@@H](O)[C@@H](C)O[C@H](O[C@H]2[C@H](Oc3cccc4c(O)c5c(=O)oc6ccc(C)c7c(=O)oc(c34)c5c67)O[C@H](C)[C@H](O)[C@]2(C)O)[C@@H]1N1CCOCC1 [Compound 4f, 2"-Deamino-2"-morpholinoelsamicin A] | – | – | 100% | 105% | 100% | – | – | – | – | – | – | – | –
5 | CO[C@H]1[C@@H](O)[C@@H](C)O[C@H](O[C@H]2[C@H](Oc3cccc4c(O)c5c(=O)oc6ccc(C)c7c(=O)oc(c34)c5c67)O[C@H](C)[C@H](O)[C@]2(C)O)[C@@H]1NC(C)C [Compound 4a, 2"-N-Isopropylelsamicin A] | – | – | 110% | 120% | 140% | 10-30 times | quite limited prolongation of life-span | – | – | – | – | – | –
6 | CN[C@H]1[C@@H](O[C@H]2[C@H](Oc3cccc4c(O)c5c(=O)oc6ccc(C)c7c(=O)oc(c34)c5c67)O[C@H](C)[C@H](O)[C@]2(C)O)O[C@H](C)[C@H](O)[C@@H]1OC [Compound 4d, 2"-N-Methylelsamicin A] | 100% | 100% | 120% | 130% | 145% | 10-30 times | quite limited prolongation of life-span | 106% | 100% | 115% | 135% | 10- 30 times | –
7 | CO[C@@H]1[C@@H](N)[C@@H](O[C@H]2[C@H](Oc3cccc4c(O)c5c(=O)oc6ccc(C)c7c(=O)oc(c34)c5c67)O[C@H](C)[C@H](O)[C@]2(C)O)O[C@H](C)[C@@H]1O [Compound 1, Elsamicin A] | 120% | 137% | 150% | 170% | 205% | – | – | 128% | 168% | 208% | ≥ 282% | – | T/C % of MST ([1]; 20 mg/kg/day): Tox; T/C % of MST (B16 melanoma; 0.1 mg/kg/day, Q4Dx3 ip): 115%; No. of survivors/tested on day 50 (B16 melanoma; 10 mg/kg/day, Q4Dx3 ip, day 50): 4/8; activity against murine tumor cells (lymphoid leukemia L1210): exerts activity; antibacterial activity (anaerobic bacteria): exhibits antibacterial activity; activity against murine tumor cells (melanotic melanoma B16): exerts activity; antibacterial activity [2]: exhibits antibacterial activity; activity against murine tumor cells (leukemia P388): exerts activity; IC50 [3]: 0.07 µg/mL (≈ 0.107 µM)
